This is an account of results in ChEMBL document CHEMBL5579867, “Ligand-Based Pharmacophoric Design and Anti-inflammatory Evaluation of Triazole Linked Semisynthetic Labdane Conjugates” (ACS Med Chem Lett, 2024).

The subject of data set [1] is RAW264.7. In words: Antiinflammatory activity in LPS-induced mouse RAW264.7 cells assessed as inhibition of IL-6 production at 20 uM pretreated for 1 hr followed by LPS stimulation and measured after 24 hrs by ELISA. In kind it is functional, cell-based. The note with it: time 25.0 hrs.
Data set [2] relates to RAW264.7. Put plainly: Cytotoxicity against mouse RAW264.7 cells assessed as reduction in cell viability at 1 to 20 uM incubated for 24 hrs by MTT assay. In kind it is toxicity, cell-based. To be noted: raw264.7, 24 h, dose 1-20 µM. (In general: Tetrazolium dyes change colour on reduction, which living cells bring about.)
In data set [3] the test system is RAW264.7. Put plainly: Antiinflammatory activity in LPS-induced mouse RAW264.7 cells assessed as inhibition of TNF-alpha production at 20 uM pretreated for 1 hr followed by LPS stimulation and measured after 24 hrs by ELISA. Format: functional, cell-based. The note with it: time 25.0 hrs. Background: In an ELISA, binding on a coated surface is turned into a signal by an enzyme label.

Data set [4] relates to RAW264.7. In words: Antiinflammatory activity in LPS-induced mouse RAW264.7 cells assessed as inhibition of NO production at 1 to 20 uM pretreated for 1 hr followed by LPS stimulation and measured after 23 hrs by Griess method. In kind it is functional, cell-based. The note with it: dose 1-20 µM, time 24.0 hrs. Background: Griess reagent forms a coloured azo dye with nitrite.

Activity calls are given as the source filed them. The calls are words filed in the database; no cut-off is given here.

`C=C1CC[C@H]2C(C)(C)CCC[C@]2(C)[C@H]1C/C=C(\CC(=O)OCc1cn(CCN2C(=O)C(=O)c3cc(Cl)ccc32)nn1)C(=O)OCc1cn(CCN2C(=O)C(=O)c3cc(Cl)ccc32)nn1`: the outcome in the data set on RAW264.7 [1] and in the data set with RAW264.7 [3] was Active. In addition, the Activity entry with RAW264.7 [2] was “Non-Toxic”.
Take `C=C1CC[C@H]2C(C)(C)CCC[C@]2(C)[C@H]1C/C=C(/C=O)CC(=O)OCc1cn(CCN2C(=O)C(=O)c3cc(OC)ccc32)nn1`: the outcome with RAW264.7 [1] and in the data set with RAW264.7 [3] was Active. In addition, the Activity result in the data set on RAW264.7 [2] is reported as “Non-Toxic”.
Regarding `C=C1CC[C@H]2C(C)(C)CCC[C@]2(C)[C@H]1C/C=C(/C=O)CC(=O)OCc1cn(CCN2C(=O)C(=O)c3cc(F)ccc32)nn1`, the result with RAW264.7 [1] and in the data set with RAW264.7 [3] was Active. Further, in the data set on RAW264.7 [2], the Activity entry is reported as “Non-Toxic”. For the same compound, in the data set on RAW264.7 [4], the result was inactive.
In the case of `C=C1CC[C@H]2C(C)(C)CCC[C@]2(C)[C@H]1C/C=C(/C=O)CC(=O)OCc1cn(CCCN2C(=O)C(=O)c3cc(Cl)ccc32)nn1`, the outcome in the data set with RAW264.7 [1] and with RAW264.7 [3] was Active. Moreover, the Activity entry in the data set with RAW264.7 [2] was “Non-Toxic”.
For `C=C1CC[C@H]2C(C)(C)CCC[C@]2(C)[C@H]1C/C=C(/C=O)CC(=O)OCc1cn(CCCCN2C(=O)C(=O)c3cc(Br)ccc32)nn1`, the outcome in the data set on RAW264.7 [1] and with RAW264.7 [3] was Active. The Activity result in the data set with RAW264.7 [2] was “Non-Toxic”.
Take `C=C1CC[C@H]2C(C)(C)CCC[C@]2(C)[C@H]1C/C=C(/C=O)CC(=O)OCc1cn(CCCCN2C(=O)C(=O)c3cc(I)ccc32)nn1`: the outcome with RAW264.7 [1] and in the data set on RAW264.7 [3] was Active. The Activity result in the data set on RAW264.7 [2] is “Non-Toxic”.
As for `C=C1CC[C@H]2C(C)(C)CCC[C@]2(C)[C@H]1C/C=C(\CC(=O)OCc1cn(CCN2C(=O)C(=O)c3cc(OC)ccc32)nn1)C(=O)OCc1cn(CCN2C(=O)C(=O)c3cc(OC)ccc32)nn1`, the outcome in the data set on RAW264.7 [1] and with RAW264.7 [3] was Active. Also, the Activity entry in the data set with RAW264.7 [2] is reported as “Non-Toxic”.
Turning to `C=C1CC[C@H]2C(C)(C)CCC[C@]2(C)[C@H]1C/C=C(/C=O)CC(=O)OCc1cn(CCCCN2C(=O)C(=O)c3cc(F)ccc32)nn1`, the outcome in the data set with RAW264.7 [1] and in the data set on RAW264.7 [3] was Active. Also, the Activity entry with RAW264.7 [2] was “Non-Toxic”.
With `C=C1CC[C@H]2C(C)(C)CCC[C@]2(C)[C@H]1C/C=C(/C=O)CC(=O)OCc1cn(CCCN2C(=O)C(=O)c3cc(I)ccc32)nn1`, the outcome in the data set with RAW264.7 [1] and with RAW264.7 [3] was Active. For the same compound, the Activity result in the data set with RAW264.7 [2] was “Non-Toxic”.
As to `C=C1CC[C@H]2C(C)(C)CCC[C@]2(C)[C@H]1C/C=C(\CC(=O)OCc1cn(CCCN2C(=O)C(=O)c3cc(Cl)ccc32)nn1)C(=O)OCc1cn(CCCN2C(=O)C(=O)c3cc(Cl)ccc32)nn1`, the outcome in the data set on RAW264.7 [1] and in the data set on RAW264.7 [3] was Active. In addition, the Activity entry in the data set with RAW264.7 [2] is reported as “Non-Toxic”.
In the case of `C=C1CC[C@H]2C(C)(C)CCC[C@]2(C)[C@H]1C/C=C(/C=O)CC(=O)OCc1cn(CCCN2C(=O)C(=O)c3ccccc32)nn1`, the outcome in the data set on RAW264.7 [1] and in the data set on RAW264.7 [3] was Active. Moreover, the Activity entry in the data set with RAW264.7 [2] is “Non-Toxic”. Also, the result with RAW264.7 [4] was inactive.
Take `C=C1CC[C@H]2C(C)(C)CCC[C@]2(C)[C@H]1C/C=C(\CC(=O)OCc1cn(CCN2C(=O)C(=O)c3cc(F)ccc32)nn1)C(=O)OCc1cn(CCN2C(=O)C(=O)c3cc(F)ccc32)nn1`: the result with RAW264.7 [1] and with RAW264.7 [3] was Active. For the same compound, in the data set on RAW264.7 [2], the Activity entry is listed as “Non-Toxic”.
On to `C=C1CC[C@H]2C(C)(C)CCC[C@]2(C)[C@H]1C/C=C(/C=O)CC(=O)OCc1cn(CCN2C(=O)C(=O)c3cc(I)ccc32)nn1`, for which the outcome in the data set on RAW264.7 [1] and in the data set on RAW264.7 [3] was Active. Further, the Activity result in the data set on RAW264.7 [2] is “Non-Toxic”. The result in the data set with RAW264.7 [4] was inactive.
In the case of `C=C1CC[C@H]2C(C)(C)CCC[C@]2(C)[C@H]1C/C=C(\CC(=O)OCc1cn(CCN2C(=O)C(=O)c3cc(I)ccc32)nn1)C(=O)OCc1cn(CCN2C(=O)C(=O)c3cc(I)ccc32)nn1`, the result in the data set on RAW264.7 [1] and with RAW264.7 [3] was Active. For the same compound, the Activity result with RAW264.7 [2] was “Non-Toxic”.
For `C=C1CC[C@H]2C(C)(C)CCC[C@]2(C)[C@H]1C/C=C(/C=O)CC(=O)OCc1cn(CCCN2C(=O)C(=O)c3cc(Br)ccc32)nn1`, the outcome in the data set on RAW264.7 [1] and in the data set with RAW264.7 [3] was Active. Also, in the data set on RAW264.7 [2], the Activity result is listed as “Non-Toxic”.
In the case of `C=C1CC[C@H]2C(C)(C)CCC[C@]2(C)[C@H]1C/C=C(/C=O)CC(=O)OCc1cn(CCN2C(=O)C(=O)c3cc(Br)ccc32)nn1`, the outcome with RAW264.7 [1] and in the data set on RAW264.7 [3] was Active. In addition, in the data set with RAW264.7 [2], the Activity result is listed as “Non-Toxic”. In the data set with RAW264.7 [4], the result was inactive.
As to `C=C1CC[C@H]2C(C)(C)CCC[C@]2(C)[C@H]1C/C=C(/C=O)CC(=O)OCc1cn(CCCCN2C(=O)C(=O)c3ccccc32)nn1`, the result in the data set with RAW264.7 [1] and in the data set with RAW264.7 [3] was Active. Besides, the Activity entry in the data set with RAW264.7 [2] is “Non-Toxic”. For the same compound, the result in the data set with RAW264.7 [4] was inactive.
As for `C=C1CC[C@H]2C(C)(C)CCC[C@]2(C)[C@H]1C/C=C(/C=O)CC(=O)OCc1cn(CCCN2C(=O)C(=O)c3cc(F)ccc32)nn1`, the outcome with RAW264.7 [1], with RAW264.7 [4] and in the data set with RAW264.7 [3] was Active. The Activity entry in the data set on RAW264.7 [2] is “Non-Toxic”.
Consider `C=C1CC[C@H]2C(C)(C)CCC[C@]2(C)[C@H]1C/C=C(/C=O)CC(=O)OCc1cn(CCCCN2C(=O)C(=O)c3cc(C)ccc32)nn1`, for which the result in the data set on RAW264.7 [1], in the data set on RAW264.7 [4] and in the data set on RAW264.7 [3] was Active. For the same compound, the Activity entry in the data set with RAW264.7 [2] was “Non-Toxic”.
As to `C=C1CC[C@H]2C(C)(C)CCC[C@]2(C)[C@H]1C/C=C(/C=O)CC(=O)OCc1cn(CCN2C(=O)C(=O)c3cc(C)ccc32)nn1`, the result with RAW264.7 [1] and in the data set on RAW264.7 [3] was Active. Also, the Activity entry in the data set on RAW264.7 [2] was “Non-Toxic”.
Regarding `C=C1CC[C@H]2C(C)(C)CCC[C@]2(C)[C@H]1C/C=C(\CC(=O)O)C(=O)O`, the outcome in the data set on RAW264.7 [1] and in the data set with RAW264.7 [3] was Active. The Activity result with RAW264.7 [2] was “Non-Toxic”.
Turning to `C=C1CC[C@H]2C(C)(C)CCC[C@]2(C)[C@H]1C/C=C(/C=O)CC=O`, the result in the data set on RAW264.7 [1] and in the data set on RAW264.7 [3] was Active. For the same compound, the Activity entry in the data set on RAW264.7 [2] was “Non-Toxic”.
For the compound `C=C1CC[C@H]2C(C)(C)CCC[C@]2(C)[C@H]1C/C=C(\CC(=O)OCc1cn(CCN2C(=O)C(=O)c3cc(C)ccc32)nn1)C(=O)OCc1cn(CCN2C(=O)C(=O)c3cc(C)ccc32)nn1`, the outcome in the data set on RAW264.7 [1] and in the data set on RAW264.7 [3] was Active. Also, the Activity result in the data set with RAW264.7 [2] is “Non-Toxic”.
As for `C=C1CC[C@H]2C(C)(C)CCC[C@]2(C)[C@H]1C/C=C(/C=O)CC(=O)OCc1cn(CCCCN2C(=O)C(=O)c3cc(OC(F)(F)F)ccc32)nn1`, the outcome in the data set with RAW264.7 [1] and with RAW264.7 [3] was Active. Besides, the Activity entry with RAW264.7 [2] was “Non-Toxic”.
As to `C=C1CC[C@H]2C(C)(C)CCC[C@]2(C)[C@H]1C/C=C(\CC(=O)OCc1cn(CCN2C(=O)C(=O)c3cc(Br)ccc32)nn1)C(=O)OCc1cn(CCN2C(=O)C(=O)c3cc(Br)ccc32)nn1`, the outcome in the data set on RAW264.7 [1] and with RAW264.7 [3] was Active. In addition, the Activity result with RAW264.7 [2] is on record as “Non-Toxic”.
On to `C=C1CC[C@H]2C(C)(C)CCC[C@]2(C)[C@H]1C/C=C(\CC(=O)OCc1cn(CCCN2C(=O)C(=O)c3cc(OC)ccc32)nn1)C(=O)OCc1cn(CCCN2C(=O)C(=O)c3cc(OC)ccc32)nn1`, for which the result in the data set with RAW264.7 [1] and in the data set on RAW264.7 [3] was Active. Moreover, in the data set on RAW264.7 [2], the Activity entry is given as “Non-Toxic”.
As to `C=C1CC[C@H]2C(C)(C)CCC[C@]2(C)[C@H]1C/C=C(/C=O)CC(=O)OCc1cn(CCCN2C(=O)C(=O)c3cc(OC(F)(F)F)ccc32)nn1`, the result in the data set with RAW264.7 [1] and in the data set on RAW264.7 [3] was Active. Besides, the Activity result in the data set with RAW264.7 [2] is given as “Non-Toxic”.
Consider `C=C1CC[C@H]2C(C)(C)CCC[C@]2(C)[C@H]1C/C=C(/C=O)CC(=O)OCc1cn(CCCCN2C(=O)C(=O)c3cc(OC)ccc32)nn1`, for which the outcome in the data set on RAW264.7 [1] and with RAW264.7 [3] was Active. Further, in the data set with RAW264.7 [2], the Activity result is “Non-Toxic”.
`C=C1CC[C@H]2C(C)(C)CCC[C@]2(C)[C@H]1C/C=C(/C=O)CC(=O)OCc1cn(CCCCN2C(=O)C(=O)c3cc(Cl)ccc32)nn1`: the outcome with RAW264.7 [1] and in the data set on RAW264.7 [3] was Active. For the same compound, the Activity result in the data set on RAW264.7 [2] was “Non-Toxic”.
Regarding `C=C1CC[C@H]2C(C)(C)CCC[C@]2(C)[C@H]1C/C=C(/C=O)CC(=O)OCc1cn(CCCN2C(=O)C(=O)c3cc(C)ccc32)nn1`, the result with RAW264.7 [1] and in the data set with RAW264.7 [3] was Active. Moreover, in the data set with RAW264.7 [2], the Activity result was “Non-Toxic”.
Consider `C=C1CC[C@H]2C(C)(C)CCC[C@]2(C)[C@H]1C/C=C(/C=O)CC(=O)OCc1cn(CCCN2C(=O)C(=O)c3cc(OC)ccc32)nn1`, for which the outcome with RAW264.7 [1] and with RAW264.7 [3] was Active. Also, the Activity entry in the data set on RAW264.7 [2] is given as “Non-Toxic”.
